{
  "source": "patent US9763897B2",
  "about": "“Therapeutic astaxanthin and phospholipid composition and associated method” (U.S. NUTRACEUTICALS, LLC, priority 2010, dated 2017)",
  "origin": "cited, not measured here",
  "key": {"[1]": {"conditions": "6 mg per day, eight weeks, healthy adults"}, "[2]": {"tested_on": "C-Reactive Protein (C-RP)"}, "[3]": {"tested_on": "LDL cholesterol oxidation", "conditions": "4 mg astaxanthin per day for two weeks"}, "[4]": {"tested_on": "pro-oxidant activity of Vioxx (membrane lipid per-oxidation)", "conditions": "in vitro"}, "lens epithelial cells": {"tested_on": "lens epithelial cells", "conditions": "umol/L concentrations"}, "LDL cholesterol": {"tested_on": "LDL cholesterol", "conditions": "3.6 mg astaxanthin per day for two weeks"}},
  "data": [
    {"compound": "CCCCCCCCCCCCCCCC(=O)O[C@H]1CC(C)(C)C(/C=C/C(C)=C/C=C/C(C)=C/C=C/C=C(C)/C=C/C=C(C)/C=C/C2=C(C)C(=O)[C@@H](OC(=O)CCCCCCCCCCCCCCC)CC2(C)C)=C(C)C1=O", "note": "[3R,3′R-astaxanthin dipalmitate, (3R,3′R-astaxanthin dipalmitate, reference compound]", "values": [
      {"measurement": "relative absorption of astaxanthin compared to the other two isomers", "setting": "men, Coral-Hinostroza et al. (2004)", "result": "higher relative absorption"}
    ]},
    {"compound": "CC1=C(/C=C/C(C)=C/C=C/C(C)=C/C=C/C=C(C)/C=C/C=C(C)/C=C/C2=C(C)C(=O)[C@@H](O)CC2(C)C)C(C)(C)C[C@H](O)C1=O", "note": "[Astaxanthin, 3,3′-dihydroxy-β-β-carotene-4,4′-dione]", "values": [
      {"measurement": "negative effect of supplementation", "setting": "[1]", "result": "no negative effect"},
      {"measurement": "decrease in C-reactive protein scores", "setting": "[2]; 4 mg astaxanthin for eight weeks", "result": 21, "unit": "%"},
      {"measurement": "drop in serum C-RP levels", "setting": "[2]; human subjects with high risk C-RP levels, three months of treatment", "result": 43, "unit": "%"},
      {"measurement": "reduction of LDL cholesterol oxidation", "setting": "[3]", "result": 26, "unit": "%"},
      {"measurement": "effect on pro-oxidant activity of Vioxx", "setting": "[4]", "result": "negate the pro-oxidant activity of Vioxx"},
      {"measurement": "effect on UVB induced lipid per-oxidative mediated cell damage", "setting": "lens epithelial cells", "result": "suppresses UVB induced lipid per-oxidative mediated cell damage"},
      {"measurement": "protection of LDL cholesterol against induced in vitro oxidation", "setting": "LDL cholesterol", "result": "protects LDL cholesterol against induced in vitro oxidation"}
    ]},
    {"compound": "CC1=C(/C=C/C(C)=C/C=C/C(C)=C/C=C/C=C(C)/C=C/C=C(C)/C=C/C2=C(C)C(=O)[C@@H](O)CC2(C)C)C(C)(C)C[C@H](O)C1=O", "note": "[free astaxanthin diol]", "values": [
      {"measurement": "uptake relative to esterified astaxanthin", "setting": "human plasma, versus esterified astaxanthin", "result": "4-5 times"}
    ]}
  ]
}
